The numbers were not newly measured in US6815453B1, “Cosmetic and dermatological light protection formulations having a content of triazine derivatives and glyceryl compounds” (Beiersdorf AG, priority 1996, dated 2004), which cites them from elsewhere.

SMILES strings stand for the structures.

Take `CCCCC(CC)COC(=O)c1ccc(Nc2nc(Nc3ccc(C(=O)OCC(CC)CCCC)cc3)nc(Nc3ccc(C(=O)OCC(CC)CCCC)cc3)n2)cc1` (stereo not drawn) [UVINUL® T 150, 4,4′,4″-(1,3,5-triazine-2,4,6-triyltriimino)-trisbenzoic acid tris(2-ethylhexyl ester)]: for the setting “corresponding to the maximum solubility in known solvents”, the “corresponding dissolved, and therefore active, UV filter substance” value is given as 1-1.5 % by weight. The “maximum amount of the filter dissolved by known solvents” value (known solvents for this UVB filter, prior-art statement) is no more than 15 % by weight. In addition, where the note is “stated in words as the main disadvantage”, the solubility in lipids result is given as “poor solubility in lipids”.
